Measurements from patent publication US20150335678A1, “METHOD OF ACTIVATING STEM CELLS IN AN ANIMAL AND THE USE OF CHLORINE DIOXIDE FOR PREPARING MEDICINES FOR ACTIVATING STEM CELLS IN AN ANIMAL” (priority 2012, published 2015).

What was measured:
[1] = test system: scar; test: Patients with scar, topical solution with dimethyl sulfoxide (Example 13); format: in vivo, human; conditions: 20 patients with scar
From the text: The subjects consisted of 20 patients with scar, including 7 male and 13 female (average age: 33 years old.) There are five cases with burn scar, 7 cases with scars resulting from accidental injury, 5 cases with surgical scar, 3 cases with scar from skin disease. The average course of disease is about 3 years.
Then the solution was immediately smeared over the scar, once a day for 10-15 days consecutively then stops administration. The second administration began 1-2 months after drug withdrawal of the first administration, once a day for consecutive 5-10 days.
To observe the effects a month after first administration and second administration. The effects were measured according to pain, stiffness and hyperpigmentation around.
specific criteria: obvious pain (+++), moderate pain (++), mild pain (+) no pain (−). stiffness of scar: can't sunken with hard pressing, (+++) can sunken with moderate pressing, (++), complete depression with mild pressing (+). Same character with normal skin (−). hyperpigmentation around: >2 cm, (+++), 1˜2 cm (++), <1 cm (+), 0 (−)
Measurement of clinical effect: excellent: no pain, and the stiffness is the same to normal skin with no hyperpigmentation around. effective: the indicators of pain, stiffness and hyperpigmentation are (+)˜(++); ineffective: one of the indicators of pain, stiffness and hyperpigmentation is (+++).

[2] = test system: wound of rabbit; conditions: Jin Wei et al. 2011; cited from earlier work
[3] = test system: localized psoriasis; test: Localized psoriasis patients, cure and recurrence vs cream control (Example 8); format: in vivo, human
From the text: The subjects consisted of 86 patients with localized psoriasis aged from 28 to 68 years old, among which 43 patients were randomly assigned to treatment group, and 43 to control group. The disease broke out continuously with more than nine months of course of disease. The purpose of the clinical test was explained to all subjects and their consent was obtained before conducting the clinical test. Treatment group: 29 male patients (74.36%), 10 female (25.64%); age (49.05±14.57); course of disease (12±9) years. Control group: 28 male patients (68.29%), 13 female patients (31.71%); age (47.05±16.25); course of disease (12±10) years.
The solution was immediately smeared over the affected region, once a day for 10 to 15 days, and then stop administration. If it relapsed, reusing it again. […] If it relapsed, reusing it again. The due time was six months.
The criteria for measuring the effect: Take PASI as reference.
A. The areas: grading from 0 to 6 for the four body parts respectively: area: 0=no rash;
B. Severity of the clinic: erythema; infiltration; scale. Grading each characteristics from 0 to 4 point; 0=no; 1=mild; 2=moderate; 3=severe; 4=extremely severe. Calculating the grades of each parts and working out the total points. The criteria of the effect (PASI decrease percentage): recovery score: ≧95%; excellent score both ≧61% and <95%; improved score both ≧20% and <60%; No effect score<20%.
The example was enumeration data and a Chi-square test was conducted to compare the cure rate and recurrence rate of the two groups.

[4] = test system: Ankylosing spondylitis; test: Ankylosing spondylitis patients: BASRI, Harris hip score, BASDAI, BASFI, ESR, CRP (Example 6); conditions: for BASDAI: before treatment 6.4 ± 1.8; for BASFI: before treatment 7.3 ± 1.6; for CRP: before treatment 17.6 ± 4.2; for ESR: before treatment 29.4 ± 9.8; for BASRI Staging: before treatment 45 ± 5; for Harris hip score: before treatment 82 ± 6
Experimental: The first solution was a mixed solution made of sodium chlorite with the concentration of 7.47% and sodium chloride with the concentration of 1.59% with deionized water; the second solution was made of citric acid with the concentration of 16.7% with deionized water. Same volume of solutions were taken out from different vessels with different volume and put into the suitable glass or plastic cups prepared. Allow the solution to mix for 3-5 minutes and then filter the solution with 0.22 μm filter membrane of double-deck, dimethyl sulfoxide was added in the ratio of 1:1. The solution was smeared over the region immediately and repeatedly, once a day for consecutive three weeks. The administration was stopped for a week, and then began the treatment for consecutive three weeks, stop the drug for a week. The medicine was repeated for four cycles. Clean and disinfect the area before administration and conduct local anesthetic 30 minutes before operation. To use corresponding amount of solution according to different regions, varying from 1-10 ml/100 cm^2.
The subjects consisted of 8 male and 4 female AS patients aged from 18 to 40 years old (average age: 26 years old).
Mean index: the index of X ray of the hip joints:
Stage I: suspicious change, local joint space may become narrower, 25 points;
Stage II: mildly abnormal, joint space becomes narrower obviously, the space>2 mm, 50 points;
Stage III: moderately abnormal, joint space becomes narrow, and the space <2 mm or the local joint space disappears, articular surfaces <2 mm, 75 points;
Stage IV: severe abnormal, bone deformation, articular surfaces >2 cm, 100 points.
If two of the three symptoms, namely, erosion and damage, syndesmophyte formation, arthrokatadysis appear during stage I and II, it should increase a level accordingly. BASRI evaluation was given according to different levels. Harris score: full score is 100 points, including pain degree of hip joints (44 points), function of hip joints (47 points), degree of lower limb malformation (4 points), range of activity of hip joints (5 points). Corresponding scores were given according to degrees. BASFI, BASDAI, ESR, CRP were applied in evaluating disease activity and function.

[5] = test system: CD34-positive mononuclear cells; test: CD34-positive mononuclear cells in peripheral blood of lower limb DVT patients, flow cytometry (Example 2); format: in vivo, human; conditions: before administration 0.38 ± 0.42, 14 days
From the text: The subjects consisted of 14 male and 6 female lower limb DVT patients with the unilateral limb suffer from the illness, aged from 59 to 76 years old (average age: 67.2 years old). The purpose of the clinical test was explained to all subjects and their consent was obtained before conducting the clinical test.
The first solution was a mixed solution made of sodium chlorite with the concentration of 7.47% and sodium chloride with the concentration of 1.59% with deionized water; the second solution was made of citric acid with the concentration of 16.7% with deionized water. Same volume of solutions were taken out from different vessels with different volumes and mixed up. Allow the solution to mix for 3-5 minutes and dilute it 5 times with normal saline, then filter it with 0.22 μm filter membrane of double-deck. The solution was immediately put into injector. The solution was prepared once being used. […]
Five ml of peripheral blood was collected from the median cubital vein of the forearm of each patient using low molecular weight heparin anticoagulant before administration (before initial administration) and on day 7 and 14 after administration, and the collected blood was immediately stored at 4° C. and measured within 6 hours after collection. […]

[6] = a month after first administration
[7] = a month after second administration
[8] = after 6 months, 43 patients per group
[9] = follow-up average 6 months, 35 treatment, 32 control patients
[10] = 12 AS patients, topical with DMSO
[11] = the sixth month, 12 AS patients, topical with DMSO
[12] = the third month, 12 AS patients, topical with DMSO

Q: Which results are given for `[O][Cl+][O-]` [chlorine dioxide solution, chlorine dioxide]?
A: ineffective (%) [1, 6]: 25%; ineffective (No.) [1, 6]: 5; total efficiency (%) [1, 6]: 30%; total efficiency (No.) [1, 6]: 6; Efficiency rate (No.) ([1]; a month after first administration, NaClO2 10%/NaCl 2.5% + citric acid 20% 1:1, DMSO 1:1, smeared once a day 10-15 days): 9; Efficiency rate (%) ([1]; a month after first administration, topical with DMSO): 45%; Efficiency rate (No.) ([1]; a month after second administration (once a day 5-10 days, 1-2 months after the first)): 15; Efficiency rate (%) [1, 7]: 75%; ineffective (No.) [1, 7]: 0; total efficiency (%) [1, 7]: 25%; total efficiency (No.) [1, 7]: 5; effect on wound in animal test [2]: speeding haemostasis and promoting healing on wound; No. effective patients [3, 8]: 0 (0) ^; No. ineffective patients [3, 8]: 0 (0); effective patients percentage [3, 8]: 0 (0) ^ %; improvement Percentage [3, 8]: 4.6%; ineffective patients percentage [3, 8]: 0 (0) %; No. Cure ([3]; after 6 months, 43 patients per group, smeared once a day 10 to 15 days, repeated on relapse, at most three treatments, test solution NaClO2 10%/NaCl 2.5% + citric acid 22% 1:1, PASI-based): 41; Cure Percentage ([3]; after 6 months, 43 patients per group, topical once a day 10 to 15 days, repeated on relapse, P<0.01 between groups): 95.3%; No. non recurrence patients [3, 9]: 33; non recurrence patients percentage [3, 9]: 94.3%; No. recurrence patients ([3]; follow-up average 6 months, 35 treatment, 32 control patients followed): 2; recurrence patients percentage (recurrence rate) ([3]; follow-up average 6 months, 35 treatment, 32 control patients, P<0.01 between groups): 5.7%; time until pain and itch during administration disappear completely [4, 10]: after an hour; tolerance [4, 10]: without local or systemic anaphylactic reaction; change of BASRI staging of the involved hip joints vs before administration ([4]; six months after administration): reduced a level; BASDAI [4, 11]: 3.0 ± 1.2; BASFI [4, 11]: 2.9 ± 1.1; CRP [4, 11]: 1.2 ± 0.6; ESR [4, 11]: 9.1 ± 6.8; BASRI Staging [4, 11]: 25 ± 8; Harris hip score [4, 11]: 32 ± 4; BASDAI [4, 12]: 3.6 ± 1.5; BASFI [4, 12]: 3.3 ± 1.4; CRP [4, 12]: 6.3 ± 3.5; ESR [4, 12]: 11.8 ± 7.6; BASRI Staging ([4]; the third month, 12 AS patients, NaClO2 7.47% + citric acid 16.7% 1:1, DMSO 1:1, smeared once a day, three weeks on/one week off, four cycles): 30 ± 6; Harris hip score [4, 12]: 49 ± 5; change of BASRI staging of the involved hip joints vs before administration ([4]; three months after administration): reduced half level; CD34-Positive Mononuclear Cells (ratio among mononuclear cells, mean±SD) ([5]; Day 7 after administration, n=20, NaClO2 7.47% + citric acid 16.7% 1:1 diluted 5 times, 10 ml/body/day femoral artery puncture): 0.91 ± 0.51 %; CD34-Positive Mononuclear Cells (ratio among mononuclear cells, mean±SD) ([5]; Day 14 after administration, n=15, diluted solution 10 ml/body/day femoral artery puncture): 1.4 ± 0.68 %
